Earlier results as cited in patent US12708515B2, “Valved devices, treatments and methods to restore tissue elastic recoil” (priority 2021, dated 2026).

Legend:
[1] = tested on: E. coli; details: cysteine terminated peptide; second value of the pair
[2] = tested on: E. coli and E. faecalis; details: physiologically relevant conditions

**Q.** What does the source list for LasioglossinIII?
**A.** anti-biofilm [1]: 40% (anti-biofilm); antimicrobial activity of coated catheters [2]: potent antimicrobial activity
